US8173604B2, “Inhibition of Skp2-cyclin a interaction” (Albert Einstein College of Medicine of Yeshiva University, priority 2006, dated 2012)
Entries after “also recorded” stand apart in the source; their conditions may differ. Numbered stars: 1 amine (or outer) side, 2 acyl side, 3 side chain; on linkers, the order of the positions; unused ones are H or OH. Bridge positions count the residues as written; N and C are the ends. Square brackets hold non-standard residues; d marks the D form. Peptide text beside a SMILES is read from it. I, II: the chains in the order shown. Actinocin(9to1) = Cc1c2oc3c(C)ccc(C(=O)[*:1])c3nc-2c(C(=O)[*:2])c(N)c1=O; NMeV = CN[C@H](C(=O)O)C(C)C; Sar = CNCC(=O)O

Key:
[1] = target: T1, cyclin A/Cdk2 (Homo sapiens, UniProt P20248+P24941); assay: In vitro cyclin A/Cdk2 kinase assay with purified proteins (GST-Rb-C substrate); type: biochemical; details: for Preventing Skp2N from protecting cyclin A/Cdk2 from inhibition by p27: cyclin A/Cdk2 3 nM, p27 5 nM, Skp2N 80 nM, increasing amounts of peptide
T1 construct: made in house; host or cells: insect cells (baculovirus)
Procedure: (§1) Cyclin A/Cdk2 kinase assays were performed as described previously (Ji et al., 2004). Both immuno-purified myc-cyclin A/Cdk2 on beads and GST-purified and eluted GST-cyclin A/Cdk2 (baculovirus vectors for GST-cyclin A and Cdk2 were provided by Brian Dynlacht) were used. The amounts of purified proteins were determined by comparing them with known amounts of standard proteins in Coomassie blue stained gels. Phosphorylation of GST-Rb-C was quantified with the ImageQuant software. The Ki of various proteins was determined by non-linear least squares analysis. To determine the amounts of various proteins in synchronized HeLa cells, extracts representing 7.5×10^4 HeLa cells were resolved with known amounts of purified proteins and compared in the same Western blots. Actual amounts of proteins in 7.5×10^4 HeLa cells were then determined (for example, the amounts of p27, Skp2, and cyclin A in 7.5×10^4 HeLa cells were determined to be about 0.1, 0.2, and 0.1 pmoles, respectively, at 14 hours post-replating; and about 0.01, 0.1, and 1.0 pmoles, respectively, at 19 hours post-replating).
For kinase reactions, insect cell-produced and purified GST-cyclin A/Cdk2 was used at a concentration of ˜3 nM, which was the lowest concentration that yielded readily detectible phosphorylation of GST-Rb-C here. Purified p27, GST-Skp2, and Skp2N were titrated into the kinase reaction over a wide range of concentrations (FIGS. 7A, B, and C). Phosphorylation of Rb-C was measured and plotted, and the Ki of these various proteins were determined by non-linear least squares analysis (FIG. 7F).
Since Skp2 competes with p27 for binding to cyclin A and Skp2's Ki is about 100-fold higher than p27's Ki, it can be reasoned that, at concentrations well below its Ki, Skp2 might be able to protect cyclin A/Cdk2 from inhibition by p27. To test this hypothesis, the same cyclin A/Cdk2 kinase assay was carried out to determine the inhibitory activity of p27 in the presence of 80 nM of Skp2N.
It was then determined whether the 4060 peptide could prevent Skp2N from protecting cyclin A/Cdk2 from inhibition by p27. […] When 80 nM of Skp2N was included, 5 nM of p27 lost its ability to inhibit the kinase activity (lane 3). […] These findings indicate that the Skp2-cyclin A interaction is also a potential target to inhibit cyclin A kinase activity in tumor cells, particularly those overexpressing Skp2.
To test this prediction, various peptides were added to an in vitro kinase reaction with purified cyclin A/Cdk2 (˜3 nM concentration). An E2F1-derived RxL peptide, LDL peptide, was used for comparison since it could inhibit cyclin A/Cdk2 kinase activity (Sun et al., 2006, and see next section). Since a TAT sequence was later added to these peptides for trans-membrane delivery (see next section), two versions of each peptide (without TAT and with TAT) was used in these kinase assays. These two versions of peptides yielded identical results and therefore only presented results with one version of the peptides.
The effects of the 4060 peptide on cyclin A/Cdk2 kinase activity in the presence of Skp2 and p27 were then determined.

[2] = tested on: human diploid fibroblasts WI-38; assay: Cell survival MTS assay, WI-38; type: cell-based; details: 120 μM, 24 hours
Procedure: In comparison, both TAT-Umt and TAT-4060 inhibited cyclin A/Cdk2 kinase activity in vitro at peptide concentrations of 100 μM (FIG. 11B). It is currently unknown how peptide concentrations in the culture media translate into intro-cellular peptide concentrations.
(§2) Cell proliferation and survival assays. For the cell proliferation assay shown in FIG. 10D, 1×10^4 cells were plated in each well of 24 well plates and allowed to grow for a course of four days in the presence of 10% FBS. Cell numbers were counted every day from triplet wells. For cell survival assays in FIGS. 13, 14 and 15, 1×10^3 cells were plated in each well of 96 well plates and allowed to adhere overnight in the presence of 10% FBS. The cells were washed once with Opti-MEM (GIBCO) followed by incubation with different concentrations of peptides in Opti-MEM for 24 hours in triplicate. MTS assay was then performed following manufacturer's protocol (Promega).

[3] = tested on: U2OS cells; details: for Cell killing effect: twenty four hours after addition of peptides
Procedure: It is currently unknown how peptide concentrations in the culture media translate into intro-cellular peptide concentrations.
Whether artificial manipulation of Skp2 protein levels in U2OS cells could change the IC50 of various peptides was also investigated.
as §2

[4] = tested on: U2OS cells; assay: Flow cytometry cell cycle profile after actinomycin D; type: cell-based, human; details: actinomycin D 180 nM, 20 hours
Procedure: Drug treatment and various routine assays. Actinomycin D (Sigma) treatment was for 20-22 hours at 180 nM. To arrest HeLa cells in mitotic phase, cells were treated with 100 ng/ml nocodazole (Sigma) for 16-17 hours. Western blotting, immunoprecipitation, indirect immunofluorescence, and flow cytometry analysis to determine cell cycle profiles were all performed with standard protocols and as described previously (Ji et al., 2004).
The AAAA mutation compromises Skp2's proliferation stimulatory activity without affecting its ability to cause degradation of cellular p27 and p21. […] Similar to the experiment shown in FIG. 6B, U2OS cells were treated with actinomycin D, which led to activation of p53, stimulation of p21 expression, and G1 cell cycle arrest manifested by a 20% increase in G1 phase cells (FIGS. 9A and B). Skp2 was overexpressed in U2OS cells to determine whether Skp2 could counter the G1 cell cycle arrest mediated by this actinomycin D triggered checkpoint.

[5] = target: T2, Skp2-cyclin A interaction (Homo sapiens, UniProt P20248); assay: GST pull-down, blocking of Skp2-cyclin A interaction by peptides; type: binding; details: for Blocking of Skp2N-cyclin A interaction: GST-Skp2N, myc-cyclin A/Cdk2 transfected 293T cell extracts
T2 construct: expressed in transfected cells; host or cells: 293T (cyclin A/Cdk2)
Procedure: GST pull down, p27 ubiquitylation assay, and cyclin A kinase assay. GST fusion proteins were purified on GSH-beads (Amersham), which were then incubated with transfected cell extracts for 1 hour in 4° C. with rocking. The beads were washed three times with lysis buffer (25 mM Hepes pH 7.6, 100 mM KCl, 0.1 mM EDTA, 10 mM MgCl2, 0.1% NP-40, 10% glycerol, 1 mM DTT) before analysis by SDS-PAGE and Western blotting.
Skp2-cyclin A interaction and p27-cyclin A interaction can be blocked by distinct peptides. An important aspect of the RxL-1-IP interaction is that it can be blocked by a short RxL peptide (Adams et al., 1996). If the Skp2-cyclin A/Cdk2 interaction and the p27-cyclin A/Cdk2 interaction are mediated by different sequences on both sides of the interaction, as shown above, it can be predicted that the RxL peptide should not block Skp2-cyclin A interaction. […] Peptide concentrations required for their respective blocking activities were similar for RxL and 4060 peptides.

[6] = target: T1, cyclin A/Cdk2; assay: IP-kinase assay with myc-cyclin A/Cdk2 transfected 293T cell extract; type: biochemical; details: increasing amounts of peptide
Procedure: In panel A, an IP-kinase assay was performed with myc-cyclin A/Cdk2 transfected 293T cell extract in the presence of increasing amounts of RxL or 4060 peptides. Phosphorylation of GST-Skp2N is visible in this gel. […] As indicated, increasing amounts of the 4060 or 4060AAAA peptides were included in the reactions. Phosphorylation of Rb-C was quantified and plotted as shown.
as §1, with “To determine the amounts of various proteins in synchronized HeLa cells, extracts representing 7.5×10^4 HeLa cells were resolved with known amounts of purified proteins and compared in the same Western blots.” left out, “post-replating). […]” for “post-replating).”

[7] = target: T3, interaction between cellular Skp2 and cyclin A/Cdk2 (Homo sapiens, UniProt P20248); assay: Coimmunoprecipitation with cyclin A from peptide-treated U2OS cells; type: cell-based; details: 50 μM peptide, twelve hours
T3 construct: endogenous in cells; host or cells: U2OS
Procedure: FIG. 12 is photographs of western blots and kinase assays and graphs showing the effects of trans-membrane delivery of the 4060 peptide. In Panel A, U2OS cells were treated with 50 μM of indicated peptide for twelve hours. Cell extracts were prepared for immunoprecipitation and Western blot analysis as indicated. […] In Panel C, the same extracts were used in IP-kinase assays as indicated. The extent of phosphorylation was quantified and plotted.
The loss of Skp2-cyclin A/Cdk2 interaction was not due to a reduction in levels of these proteins (FIG. 12B). Importantly, cellular p27 protein levels were not affected by the blocking peptide. […] Here, it is important to point out that although we used p27 as an inhibitor of cyclin A-associated kinase activity in purified kinase reactions with the 4060 blocking peptide shown in FIG. 11, the effects of blocking Skp2-cyclin A interaction on cyclin A-associated kinase activity in cells is unlikely to be mediated by p27 alone. There was no significant interaction between p27 and cyclin A in U2OS cells before and after treatment of TAT-4060. p27 family members p21 and p57, and the pocket proteins p107 and p130 (Adams et al., 1996) may bind and inhibit cyclin A-associated kinase activity through the RxL-HP interaction mechanism. […]

Row | Compound | WI-38 cells killed [2] | Change of peptide effect by Skp2 knockdown or overexpression ([3]; U2OS) | Preventing Skp2N from protecting cyclin A/Cdk2 from inhibition by p27 [1] | Blocking of Skp2N-cyclin A interaction [5] | Cell killing effect ([3]; U2OS) | further results
1 | CC(C)C[C@H](NC(=O)[C@H](CC(=O)O)NC(=O)[C@H](CC(C)C)NC(=O)[C@H](CCCNC(=N)N)NC(=O)[C@H](CCCNC(=N)N)NC(=O)[C@H](CCCCN)NC(=O)[C@@H](NC(=O)[C@@H]1CCCN1C(=O)CNC(=O)[C@H](CCCNC(=N)N)NC(=O)[C@H](CCCNC(=N)N)NC(=O)[C@H](CCCNC(=N)N)NC(=O)[C@H](CCC(N)=O)NC(=O)[C@H](CCCNC(=N)N)NC(=O)[C@H](CCCNC(=N)N)NC(=O)[C@H](CCCCN)NC(=O)[C@H](CCCCN)NC(=O)[C@H](CCCNC(=N)N)NC(=O)CNC(=O)[C@@H](N)Cc1ccc(O)cc1)C(C)C)C(=O)O [TAT-LDL, reference compound] | 25% | not affected by Skp2 knockdown or overexpression |  |  |  | Inhibition of cyclin A/Cdk2 kinase activity towards GST-Rb-C ([1]; 1 μM peptide, cyclin A/Cdk2 ~3 nM): ten-fold; Cell killing effect of single peptide ([3]; U2OS, 1 or 2 μM, 24 hours): neither TAT-LDL nor TAT-4060 exhibited any cell killing effects
2 | Cc1c2oc3c(C)ccc(C(=O)N[C@@H]4C(=O)N[C@H](C(C)C)C(=O)N5CCC[C@H]5C(=O)N(C)CC(=O)N(C)[C@@H](C(C)C)C(=O)O[C@@H]4C)c3nc-2c(C(=O)N[C@@H]2C(=O)N[C@H](C(C)C)C(=O)N3CCC[C@H]3C(=O)N(C)CC(=O)N(C)[C@@H](C(C)C)C(=O)O[C@@H]2C)c(N)c1=O [actinomycin D, Actinomycin D] (I: T[dV]P[Sar][NMeV] / II: T[dV]P[Sar][NMeV]; ester I:1-I:C, II:1-II:C; linker I:N-II:N via Actinocin(9to1)) |  |  |  |  |  | Increase in G1 phase cells [4]: 20%
3 | KTSEAASGMGVAAAEKEE (peptide 4060AAAA) [4060 peptide with the four conserved residues mutated to alanine, reference compound] |  |  | did not have significant effects; also recorded: much weaker in disrupting the protective effect of Skp2N | abolished the blocking activity |  | 
4 | KTSELLSGMGVSALEKEE (listed as Homo sapiens) [compound 4060] |  |  | p27 gradually regained its inhibitory effects; also recorded: abolished this protective effect in a dose-dependent manner | can block |  | Blocking of binding between full-length GST-Skp2 and cyclin A/Cdk2 ([5]; full-length GST-Skp2): blocked binding; Effect of peptide itself on cyclin A/Cdk2 kinase activity towards Rb-C [6]: did not
5 | YGRKKRRQRRRGETDHQYLAESS (TAT-Umt) [reference compound] | no effect | not affected by Skp2 knockdown or overexpression |  |  | did not have cell killing effects | Inhibitory effect on cyclin A/Cdk2 kinase activity ([1]; 1 μM and 10 μM peptide): did not show inhibitory effect; Inhibition of cyclin A/Cdk2 kinase activity ([1]; 100 μM peptide): significant inhibition; Cell killing effect at 120 μM ([3]; 120 μM): did not exhibit cell killing effects
6 | YGRKKRRQRRRGKTSEAASGMGVAAAEKEE (TAT-4060AAAA) [reference compound] |  |  |  |  | did not have significant cell killing effects | Dissociation of interaction between cellular Skp2 and cyclin A/Cdk2 [7]: did not have this effect
